Reference: ChEMBL document CHEMBL3576794, “Decaprenylphosphoryl-β-d-ribose 2'-Epimerase 1 (DprE1): A Novel Therapeutic Target for the Treatment of Tuberculosis” (2015)
In brackets after ≈: the same amount, converted by molar mass.

Each molecule was assayed on Mycobacterium tuberculosis (assay: Antibacterial activity against Mycobacterium tuberculosis H37Rv ATCC 27294 after 5 days by microdilution method). Settings: H37Rv ATCC 27294, 120 h.
Assay type: functional
Molecule `COc1ncnc(Cn2cc(C(=O)NCCO)c3ncc(C)cc32)c1C` [TBA-7371] has an MIC80 of 1.56 µM (≈ 0.554 µg/mL).
With `COc1cnc2c(C(=O)NCC(F)F)cn(Cc3ncnc(OC)c3C)c2c1` the MIC80 was under 0.39 µM.
For `COc1ncnc(Cn2cc(C(=O)NCCF)c3ncccc32)c1C`, the MIC80 was 1.56 µM (≈ 0.536 µg/mL).
With `COc1ncnc(Cn2cc(C(=O)NCCF)c3ncc(Br)cc32)c1C` the MIC80 was 0.781 µM (≈ 0.33 µg/mL).
`CC(c1c(F)cccc1F)n1cc(C(=O)NCCF)c2ncccc21` (stereo unspecified) showed an MIC80 of 12.5 µM (≈ 4.34 µg/mL).
`COc1ncnc(Cn2cc(C(=O)NC[C@@H](C)O)c3ncc(C)cc32)c1C` showed an MIC80 of 6.52 µM (≈ 2.41 µg/mL).
